Test results taken from patent US12172986B2, “Splicing modulator antibody-drug conjugates and methods of use” (EISAI R&D MANAGEMENT CO., LTD., priority 2018, dated 2024).
Several values for one entry are separate records, joined by “and”; a condition that tells them apart may be missing. Equal values may be shown once.

Legend:
[1] = test system: FBXW5 (mature mRNA transcript); assay: In vivo PD RT-qPCR in NCI-N87 tumors, FBXW5; design: species or system mouse; settings: 10 mg/kg IV single dose
[2] = test system: TAOK1 (neojunction transcript); assay: In vivo PD RT-qPCR in NCI-N87 tumors, TAOK1; design: species or system mouse; settings: 10 mg/kg IV single dose
[3] = test system: Ad2.1 pre-mRNA splicing; assay: In vitro splicing (IVS) RT-qPCR, Ad2.1 pre-mRNA, HeLa nuclear extract; type: biochemical; settings: payload of the ADC; read-out: qPCR-IVS-AT S Gmean IC50 (nm) Ad2.1 HELA.2
[4] = test system: Ad2.2 pre-mRNA splicing; assay: In vitro splicing (IVS) RT-qPCR, Ad2.2 pre-mRNA, HeLa nuclear extract; type: biochemical; settings: payload of the ADC; read-out: qPCR-IVS-AT S GMean IC50 (nM) Ad2.2 HELA.2
Procedure: To evaluate payload activity in a cell-free system, an in vitro splicing assay was performed. The payloads were incubated with nuclear extracts and pre-mRNA substrate minigenes.
HeLa nuclear extract preparation: HeLa S3 cell pellets were resuspended in hypotonic buffer (10 mM HEPES pH 7.9, 1.5 mM MgCl2, 10 mM KCl, 0.2 mM PMSF, 0.5 mM DTT) and the suspension was brought up to a total of 5 packed cell volume (PCV). After centrifugation, the supernatant was discarded, and the cells were brought up to 3 PCV with hypotonic buffer and incubated on ice for 10 min. Cells were lysed using a dounce homogenizer and then centrifuged. […]. The nuclei were gently mixed for 30 min before centrifuging. The supernatant (nuclear extract) was then dialyzed into storage buffer (20 mM HEPES pH 7.9, 100 mM KCl, 0.2 mM EDTA, 20% glycerol, 0.2 mM PMSF, 0.5 mM DTT). Protein concentration was determined using NanoDrop 8000 UV-Vis spectrophotometer (ThermoFisher Scientific).
IVS: All Ad2-derived sequences (Pellizzoni et al. (1998) Cell 95(5):615-24) were cloned into pcDNA3.1(+) vector (Promega) using 5′ EcoRI and 3′ Xbal restriction sites. The plasmids were linearized using Xbal and used as DNA templates in in vitro transcription reactions. The FtzΔi intron-less plasmid (Luo and Reed (1999) 96(26):14937-42) was linearized using EcoRI. All RNAs were in vitro transcribed and then purified using MEGAScript T7 (Invitrogen) and MegaClear (Invitrogen) kits, respectively. For splicing reactions using Ad2 variant pre-mRNAs, 1 μL reactions were prepared using 8 μg nuclear extracts prepared from HeLa S3, 2 ng pre-mRNA, 0.2 ng FTZΔi, and varying concentrations of compounds or DMSO. After a 15 min pre-incubation at 30° C., 1 μL splicing activation buffer (0.5 mM ATP, 20 mM creatine phosphate, 1.6 mM MgCl2) was added, and the reactions were incubated for 90 min at 30° C. The reactions were then quenched with 13 μL DMSO, and 25 nL was used for RT-qPCR. RT-qPCR reactions were prepared using TaqMan RNA-to-CT 1-step kit (Life Technologies), RNA from splicing reactions, Ad2 (forward: […]; reverse: […]; probe: […]) and Ftz (forward: […]; reverse: […]; probe: […]) mRNA primer-probe sets. Prism 7 (Graphpad) was used for non-linear regression curve fitting of the formed spliced product and normalized to the control (DMSO) sample. […] In the presence of payload, a decrease in the amount of spliced product was observed.

[5] = test system: HCC1954 cells; assay: Cell viability CellTiter-Glo, HCC1954; type: cell-based; settings: unconjugated payload of the ADC
[6] = test system: N87 cells; assay: Cell viability CellTiter-Glo, N87; type: cell-based, human; settings: unconjugated payload of the ADC
[7] = test system: THP1.1; assay: Payload cell potency and lethality CTGlo 72 h, THP1.1; type: cell-based; settings: payload
[8] = test system: MOLP8 cells; assay: Cell viability, CD138-expressing MOLP8; type: cell-based; settings: unconjugated payload of the ADC
[9] = test system: PC3 cells; assay: Cell viability, EPHA2-expressing PC3; type: cell-based; settings: corresponding payload alone
[10] = Caco-2 permeability of ADC payload; type: in vitro ADME; settings: human, Caco-2; payload, B-A/A-B; read-out: Eflux ratio
Procedure: (§1) Integrity of cell monolayer was confirmed by TEER (transepithelial electrical resistance) and Lucifer yellow. Payloads were spiked in duplicate at 10 μM, separately, on both sides of the cell monolayer. Permeability rates from the apical to basolateral (A-B) direction and the basolateral to apical (B-A) direction were determined by sampling aliquots from both chambers immediately after treatment (t=0) and following incubation for 2 hours. Samples were protein precipitated with organic solvent containing internal standard and analyzed by LC-MS/MS (SCIEX; API 5500). The area ratio responses of payload/internal standard over time in both directions were used to generate permeability (cm/see) values. Efflux ratio was calculated by dividing B-A/A-B. Control compounds for low and high permeability and efflux behaved as expected.

[11] = test system: Caco-2 cells; assay: Caco-2 permeability of ADC payload; type: in vitro ADME; settings: for Permeability Caco-2 A-B (10e-6 cm/s): Table 26, corresponding payload
Procedure: as §1

[12] = test system: MCF7 cells; assay: Cell viability CellTiter-Glo, HER2-negative MCF7; settings: unconjugated payload of the ADC
[13] = Chemical stability of ADC payload, pH 5.5 buffer; settings: for pH 5.5 Stability (t1/2, 37C): Table 26, corresponding payload, pH 5.5, 37C
[14] = biological target: T1, SF3b complex (Homo sapiens, UniProt O75533+Q7RTV0); assay: SF3B1 binding / scintillation proximity assay (SPA); settings: payload of the ADC; read-out: SPA-AT S GMean IC50 (nM) SF381 (WT) HELA.2
T1 construct: The beads were suspended and added to the prepared nuclear extracts

[15] = in vivo; cited from earlier work

CC[C@H](O)[C@@H](C)C1OC1C[C@@](C)(O)/C=C/C=C(\C)[C@H]1OC(=O)C[C@H](O)CC[C@@](C)(OC)[C@@H](OC(=O)N2CCN(CCN3C(=O)C=CC3=O)CC2)/C=C/[C@@H]1C (stereo in doubt) [ADL14-D1, (2S,3S,6S,7R,10R,E)-10-hydroxy-2-((R,2E,4E)-6-hydroxy-7-((2S,3S)-3-((2R,3S)-3-hydroxypentan-2-yl)oxiran-2-yl)-6-methylhepta-2,4-dien-2-yl)-7-methoxy-3,7-dimethyl-12-oxooxacyclododec-4-en-6-yl 4-(2-(2,5-dioxo-2,5-dihydro-1 H-pyrrol-1-yl)ethyl)piperazine-1-carboxylate]
FBXW5 mature mRNA transcript in tumors [1]: did not exhibit statistically significant changes
TAOK1 neojunction transcript in tumors [2]: did not exhibit statistically significant changes

CC[C@H](O)[C@@H](C)[C@H]1O[C@@H]1C[C@@](C)(O)/C=C/C=C(\C)[C@H]1OC(=O)C[C@H](O)CC[C@@](C)(OC)[C@@H](OC(=O)N2CCN(C)CC2)/C=C/[C@@H]1C [D2, (2S,3S,6S,7R,10R,E)-10-hydroxy-2-((R,2E,4E)-6-hydroxy-7-((2R,3R)-3-((2R,3S)-3-hydroxypentan-2-yl)oxiran-2-yl)-6-methylhepta-2,4-dien-2-yl)-7-methoxy-3,7-dimethyl-12-oxooxacyclododec-4-en-6-yl 4-methylpiperazine-1-carboxylate]
IC50 [3]: 19.1 nM and 19.3 nM
IC50 [4]: 15.3 nM
Payload LD50 [5]: 2.758 nM
Payload Rmin (%) [5]: −78.732%
Payload LD50 [6]: >200 nM
CTGlo-AT S GMean LD50 (nM) 72 h THP1.1 [7]: 11.708 nM
LD50 (nM) (payload) [8]: 5.035 nM
Rmin (%) (payload) [8]: −100.198%
Payload LD50 [9]: >400 nM
efflux ratio at 2 h, 10 μM [10]: 22.8
Permeability Caco-2 A-B (10e-6 cm/s) [11]: 0.6 10e-6 cm/s
Eflux ratio ([11]; payload, B-A/A-B): 22.756
Payload LD50 [12]: 30.318 nM
Payload Rmin (%) [12]: −66.915%
pH 5.5 Stability (t1/2, 37C) [13]: 4

CC[C@H](O)[C@@H](C)[C@H]1O[C@@H]1C[C@@](C)(O)/C=C/C=C(\C)[C@H]1OC(=O)C[C@H](O)CC[C@@](C)(OC)[C@@H](OC(=O)N2CCN(CCCC(=O)O)CC2)/C=C/[C@@H]1C [D25]
IC50 [14]: 14.6 nM
IC50 [3]: 244 nM
IC50 [4]: 50.9 nM
Payload LD50 [5]: >200 nM
Payload Rmin (%) [5]: 26.882%
Payload LD50 [6]: >200 nM
CTGlo-AT S GMean LD50 (nM) 72 h THP1.1 [7]: 2076.811 nM
LD50 (nM) (payload) [8]: >400 nM
Rmin (%) (payload) [8]: 5.94%
efflux ratio at 2 h, 10 μM [10]: 2.55
Permeability Caco-2 A-B (10e-6 cm/s) [11]: 0.14 10e-6 cm/s
permeability (in words) ([11]; payload): poorly permeable
Payload LD50 [12]: >200 nM
Payload Rmin (%) [12]: 65.639%
pH 5.5 Stability (t1/2, 37C) [13]: 3.4

COc1cc2cc(c1Cl)N(C)C(=O)C[C@H](OC(=O)[C@H](C)N(C)C(=O)CCS)[C@]1(C)O[C@H]1[C@H](C)[C@@H]1C[C@@](O)(NC(=O)O1)[C@H](OC)/C=C/C=C(\C)C2 [DM1, reference compound]
IC50 [14]: > 1200 nM
IC50 [3]: > 25000 nM
IC50 [4]: > 25000 nM
CTGlo-AT S GMean LD50 (nM) 72 h THP1.1 [7]: 3.287 nM
CTGlo-AT S Mean MinResponse % 72 h THP1.1 [7]: −93.785%
Permeability Mean Caco-2 A-B Perm (10e-6 cm/s) ([11]; payload, 10 μM, 2 hours, apical to basolateral): 0.38 10e-6 cm/s
Permeability Mean Caco-2 B-A Perm (10e-Gcm/s) ([11]; payload, 10 μM, 2 hours, basolateral to apical): 28.6 10e-Gcm/s
Stability Mean Stability t1/2 pH5.5 (d) ([13]; payload, 20 μM, pH 5.5 buffer, 37° C.): 1.3 d

ipilimumab
plasma half-life [15]: 12 to 14 days

tremelimumab
plasma half-life [15]: approximately 22 days
